Where two headings read alike, the source gives them in different places.
Experiments:
[1] = test system: 2 mm diameter mouse ear hole; assay: ear hole trauma mouse model, 2 mm diameter ear puncher; assay type: in vivo, C57BL/6 mice; settings: for healing of 2 mm ear hole: ferroptosis/autophagy inhibitors 10-20 mg/kg, measured 21 days after damage, n≥8 (FIG. 3); for healing of the 2 mm ear hole: treated 21 days, vs Vehicle (FIG. 1B)
[2] = test system: 4 mm diameter mouse ear hole; design: species or system mice; settings: in vivo
[3] = test system: overall protein translation; assay type: cell-based

## O=C1OC(COc2ccccc2[N+](=O)[O-])CC1Cc1ccccc1 (stereo not shown) [3BDO]
[1]
  healing of 2 mm ear hole: Neither inhibitors of ferroptosis nor autophagy could promote the healing of the ear hole like CHX

## COc1ccc(C[C@H]2NC[C@H](O)[C@H]2OC(C)=O)cc1 [Ani, anisomycin]
[1]; Ani 10 mg/kg
  healing of the 2 mm ear hole: significantly promote the healing of the ear hole

## Cc1cc(Nc2cc(Cl)nc(Oc3ccc([N+](=O)[O-])cc3)n2)n[nH]1 [Autophinib]
[1]
  healing of 2 mm ear hole: Neither inhibitors of ferroptosis nor autophagy could promote the healing of the ear hole like CHX

## C[C@@H]1C[C@@H]([C@H](O)CC2CC(=O)NC(=O)C2)C(=O)[C@@H](C)C1 [CHX, 4-((R)-2-((1S,3S,5S)-3,5-dimethyl-2-oxocyclohexyl)-2-hydroxyethyl)piperidine-2,6-dione]
ISG genes; fibroblasts and macrophages
  ISG gene expression: upregulate the expression of classical ISGs
[2]
  wound area of 4 mm ear hole: significantly reduced
[1]; CHX 20 mg/kg (FIG. 1E)
  HE staining of auricle tissue: the trauma had completely healed
[1]; CHX 20 mg/kg, 15th day after trauma (FIG. 1F)
  HE staining of auricle tissue: healed the tissue after damage and formed granulation tissue
[1]; CHX 20 mg/kg, 7 days, basal cells (FIG. 1G)
  KI67 immunohistochemical staining of auricle tissue: expressed a large amount of KI67
[1]; CHX 20 mg/kg, 30 days (FIG. 1D)
  closure of 2 mm ear hole wound: completely closed
[1]; CHX 20 mg/kg, 180 days after ear hole closure (FIG. 1H)
  HE staining of auricle tissue, regenerated tissues: regeneration of tissues and tissue derivatives such as hair follicles, glands, cartilage, muscles and blood vessels
[1]; CHX 20 mg/kg
  healing of the 2 mm ear hole: significantly promote the healing of the ear hole
[1]; CHX greater than 8 mg/kg, after three weeks of treatment (FIG. 1C)
  closure of 2 mm ear hole wound: completely closed
[1]; each concentration of CHX, intraperitoneal, n≥8 (FIG. 1C)
  closure of 2 mm ear hole: promoted the closure of a 2 mm diameter of ear holes
[1]; oral gavage and intraperitoneal injection, 3 weeks (FIG. 1I)
  healing effect by administration manner: different manners of administration had the effect of promoting regeneration

## Cn1nc(C(C)(C)C)cc1NC(=O)Nc1ccc(Oc2ccncc2)cc1 [MAPK13-IN-1]
ISG genes; FIG. 9B, cell type not given
  ISG gene expression: promote the ISG gene expression
[1]; MAPK13-IN-1 20 mg/kg (FIG. 9C)
  HE staining of ear hole: the trauma was almost completely healed
[1]; MAPK13-IN-1, 21 days of treatment (FIG. 9D)
  Masson staining of ear hole: Obvious regeneration of muscle fiber bundles was observed

## O=C1N[C@@H]2C(=C[C@H](O)[C@@H](O)[C@H]2O)c2cc3c(c(O)c21)OCO3 [Narciclasine]
ISG genes; fibroblasts and macrophages
  ISG gene expression: significantly promoted the expression of ISG genes
[3]
  inhibition of overall protein translation: significantly inhibit the overall protein translation
[1]; Narciclasine 1-3 mg/kg (FIG. 5F, 5G)
  regenerated tissues in closed ear holes (histochemical, Masson): regenerate tissues and tissue derivatives such as hair follicles, glands, cartilage and muscles
[1]; Narciclasine 1-3 mg/kg, intraperitoneal (FIG. 5D, 5E)
  healing of 2 mm ear holes: significantly promote the healing of 2 mm ear holes

## O=C1N[C@H]2[C@H](O)[C@H](O)[C@@H](O)[C@H](O)[C@@H]2c2cc3c(c(O)c21)OCO3 [Pancratistatin]
ISG genes
  ISG gene expression: significantly promote the ISG gene expression
[3]
  inhibition of overall protein translation: significantly inhibit overall protein translation
[1]; mouse, in vivo
  HE and Masson staining of ear hole: completely closed and identified as a regeneration event
  closure of 2 mm ear hole: the ear hole was completely closed

## O=C(Nc1ccc(C(O)(C(F)(F)F)C(F)(F)F)cc1)c1ccc(C(F)(F)F)cc1 [SR1078]
[1]; SR1078 1 mg/kg, 21 days after trauma, n≥7 (FIG. 10A)
  healing of ear holes: significantly inhibited regeneration

## O=S(=O)(Nc1ccc(C(O)(C(F)(F)F)C(F)(F)F)cc1)c1cccs1 [SR3335]
ISG genes; fibroblasts and macrophages
  ISG gene expression: promote the ISG gene expression
[1]; SR3335 10 mg/kg, 21 days after trauma, n≥7 (FIG. 10A)
  healing of ear holes: promoted the ear holes
[1]; SR3335 (FIG. 10D)
  HE staining of ear hole: the wound was almost completely healed
[1]; SR3335, 21 days of treatment (FIG. 10E)
  Masson staining of ear hole: regeneration structures of cartilage, hair follicles, sebaceous glands (arrows), and muscles

## O=S(=O)(NCCN1CCNCC1)c1ccc(NC2CCCCC2)c(NCc2ccccc2)c1 [UAMC-3203]
[1]
  healing of 2 mm ear hole: Neither inhibitors of ferroptosis nor autophagy could promote the healing of the ear hole like CHX

B1: interferon (IFN) γ: cytokine interferon γ (protein, UniProt P01579 24-161, looked up)
Interferon gamma: QDPYVKEAENLKKYFNAGHSDVADNGTLFLGILKNWKEESDRKIMQSQIVSFYFKLFKNFKDDQSIQKSVETIKEDMNVKFFNSNKKKRDDFEKLTNYSVTDLNVQRKAIHELIQVMAELSPAAKTGKRKRSQMLFRG
ISG genes; 10 ng/ml, fibroblasts and macrophages (FIG. 7A, 7B)
  ISG gene expression: significantly promote the ISG gene expression
[1]; IFNγ 50 μg/kg ip once every two days, 35th day after damage (FIG. 7C)
  healing of ear holes: significantly promoted the healing of ear holes after damage

B2: S100A8/A9: S100A8/A9 heterodimer (Biolegend, 765502), alarmin protein (protein, UniProt P05109 1-93; P06702 1-114, looked up)
Protein S100-A8: MLTELEKALNSIIDVYHKYSLIKGNFHAVYRDDLKKLLETECPQYIRKKGADVWFKELDINTDGAVNFQEFLILVIKMGVAAHKKSHEESHKE
Protein S100-A9: MTCKMSQLERNIETIINTFHQYSVKLGHPDTLNQGEFKELVRKDLQNFLKKENKNEKVIEHIMEDLDTNADKQLSFEEFIMLMARLTWASHEKMHEGDEGPGHHHKPGLGEGTP
ISG genes; 5 ng/ml, fibroblasts and macrophages (FIG. 8A, 8B)
  ISG gene expression: significantly promote the ISG gene expression
[1]; S100A8/A9 12.5 μg/kg ip every two days, 35th day after damage (FIG. 8C)
  healing of ear holes: significantly promoted the healing of the ear holes
[1]; S100A8/A9 12.5 μg/kg, 35th day after damage
  complete closure of ear holes: one of the ear holes was completely closed
[1]; S100A8/A9 (FIG. 8D)
  HE and Masson staining, regenerated structures: regeneration of various tissue structures, such as epidermis, dermis, hair follicles, glands, cartilage
